Reference: patent US20250066338A1, “CERTAIN 3-AZABICYCLO[3.1.0]HEXANES AS GLP-1 RECEPTOR MODULATORS” (AstraZeneca AB, priority 2021, published 2025)

How the values were obtained:
human GLP-1R receptor = human GLP-1R receptor (Homo sapiens (Human), UniProt P43220, L260F); assay: CHOK1 GLP-1R cAMP Assay; format: cell-based; settings: CHO-K1 cell line stably expressing human GLP-1R; HTRF cAMP; agonist activity
Experimental: A cell line stably expressing the human GLP-1R receptor (NM 002062.5, including the naturally-occurring variant Leu260Phe) in a CHO-K1 (ATCC® CCL-61™) was used for assay.
GLP-1 receptor mediated agonist activity was determined in a cell based assay measuring cyclic adenosine monophosphate (cAMP) levels in cells using Homogeneous Time-Resolved Fluorescence (HTRF) cAMP detection kit (CisBio catalog #62AM4PEC, cAMP Gs Dynamic range kit). The cAMP detection method is based on a competitive immunoassay, in which cAMP produced by the cells and cAMP labeled with the dye d2 compete for binding to a Europium-Cryptate-labeled anti-cAMP antibody. The specific HTRF signal is inversely proportional to the concentration of cAMP.
Compounds were added to individual well in 384 well-assay plates (Greiner #784076) using an Echo (LabCyte) dispenser from 10 mM stocks. Varying concentration of compounds were added to wells, and DMSO was used to normalize each well to a volume of 100 nL. A dose response curve of GLP1(7-36)NH2 (Bachem H-6795) was included in each run. 5 μL of cAMP concentration response standards are applied in specified wells in the assay plates. Cryo-preserved cells are thawed and resuspended in assay buffer pre-heated to 37° C. (20 mM HEPES pH 7.4, lx Hank's Balanced Salt Solution (HBSS, Life Technologies #14065) supplemented with 0.1% (w/v) bovine serum albumin (Sigma, A-7030). Cells were centrifuged at 250*g for 5 min at rt, and resuspended in room tempered assay buffer to a final density of 0.16*10^6 cell/mL, to deliver 800 cells/well. 5 μL of assay buffer with 1 mM 3-isobutyl-1-methylxanthin (IBMX; Sigma cat I-7018) was dispensed per well in assay plates using a multidrop combi (Thermo Scientific) subsequently 5 μL of cell suspension was distributed to relevant wells in the assay using a multidrop dispenser. Assay plates were incubated 20 min at rt.
Detection reagents, Europium-Cryptate-labeled anti-cAMP antibody and cAMP labeled with the dye d2, are diluted in lysis buffer, provided by the manufacturer. 5 μL of each detection reagent is supplemented to each assay well using a multidrop dispenser. Assay plates are incubated in the dark for at least one h. The HTRF signal is measured using the HTRF module (excitation: 337 nm, emission A: 665 nm and emission B: 620 nm) in Pherastar FSX (BMG Labtech).
Raw data were converted to pM cAMP using the cAMP standard curve included in each run. Converted data were further analyzed in Genedata Screener (Genedata) and EC50 determinations were made from agonist dose-response curves analyzed with a curve fitting program using a 4-parameter logistic dose response equation (Equation y=A+((B−A)/1+((C/x)^D))) where A is no stimulation, B is full stimulation, C is the EC50 and D is the Hill slope). The percent effect was determined relative to a saturating concentration of a full GLP-1R agonist (GLP1(7-36)NH2 has 100% effect in this assay setup).

[1] = target: GLP-1R in EndoC-βH1 cells (Homo sapiens (Human), UniProt P43220); assay: EndoC cAMP Accumulation Assay; format: cell-based; settings: EndoC-βH1 human pancreatic beta cell line; HTRF cAMP accumulation
Chain of GLP-1R in EndoC-βH1 cells (P43220 24-463): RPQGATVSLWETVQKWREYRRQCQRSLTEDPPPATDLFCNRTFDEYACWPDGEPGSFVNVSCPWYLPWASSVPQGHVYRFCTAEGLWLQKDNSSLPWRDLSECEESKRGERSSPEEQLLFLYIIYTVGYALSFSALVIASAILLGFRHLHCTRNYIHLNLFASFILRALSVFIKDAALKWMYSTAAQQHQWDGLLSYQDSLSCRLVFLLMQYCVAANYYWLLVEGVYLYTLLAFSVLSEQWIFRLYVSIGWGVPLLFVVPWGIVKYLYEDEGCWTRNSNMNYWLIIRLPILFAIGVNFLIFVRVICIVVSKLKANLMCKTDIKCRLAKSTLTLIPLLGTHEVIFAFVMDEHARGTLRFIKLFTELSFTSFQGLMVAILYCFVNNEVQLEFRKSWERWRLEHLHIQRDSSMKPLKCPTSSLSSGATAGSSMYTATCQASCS
Description: EndoC cAMP Accumulation Assay
A HTRF cAMP assay (cAMP Gs dynamic kit; CisoBio Cat #62AM4PEJ) was used to identify agonists of GLP-1R in a pancreatic insulinoma cell line (EndoC-βH1). […] EndoC-βH1 cells have detectable GLP-1R messenger ribonucleic acid (mRNA) as detected by quantitative polymerase chain reaction (qPCR). […] The EndoC-βH1 cell line is a valid model of human beta cells and applicable for screenings to identify novel drug target candidates (Mol. Metab., 2018, 8, 144-157). CisBio HTRF cAMP kits are based on a competitive immunoassay using cryptate-labelled anti-cAMP antibody and d2-labeled cAMP. The detection kit is intended for the direct quantitative determination of cAMP. The specific signal (i.e. energy transfer) is inversely proportional to the concentration of cAMP in the standard or sample. Test compounds (10 mM in DMSO) were diluted into assay buffer (HBSS (Sigma #H8264) supplemented with 25 mM HEPES (Gibco #15630, pH 7.4), 0.1% BSA (Sigma #A3059) and 0.5 mM IBMX (Sigma #17018) included fresh on the day of the assay) into 96 well U-bottom plates (Greiner #650201). Diluted compounds were transferred to ECHO source polypropylene plates (Labcyte #P-05525) and dose response curves were dispensed acoustically using ECHO 550 into black shallow-well u-bottom 384-well HTRF Assay Plates (Corning 4514).
Cryovials of EndoC-H1 (supplied at 1×10e^7 cells/vial) were used directly for screening. The cryovials and were removed from N2 (1) and thawed rapidly in a 37° C. water bath. The cells were resuspended in assay buffer and centrifuged at 300 g for 5 min. Cells were resuspended in assay buffer at the appropriate concentration, typically at 12e5 cells per mL (3000 cells per well, dependent on cell batch) and 2.5 μL diluted cells were added to all wells of destination plate by Multidrop combi reagent dispenser (Thermofisher). The plates were incubated at rt for 30 min. The assay was stopped by adding 2.5 μL anti-cAMP cryptate solution to all wells and 2.5 μL cAMP-d2 solution (both diluted 1:20 in lysis buffer) to columns 1-22 by Combi drop. A volume of 2.5 μL cAMP-d2 solution was added to wells E23 to P24 and 2.5 μL lysis buffer added to wells A23 to D24 by multichannel pipette. The plates were incubated at rt for 1 h and read on an Envision plate reader using excitation wavelength of 320 nm and emission of […] and 660 nm.
Raw data from Envision is converted to % DeltaF according to the manufacturer's instructions. Dose response curves are analysed via 4-Parameter Logistical Analysis and assay plate Z′ values obtained. Samples are graphed as percentage (%) activation plots compared to GIP (1-42, Bachem H-5645) with assay window defined by negative control as basal cell cAMP levels and positive control are defined by maximum GIP (82.5 nM) signal. GLP1 (7-36 amide, Bachem H-6795) dose response curve was included on all plates.

[2] = target: human phosphodiesterase-3A (Homo sapiens (Human), UniProt Q14432); assay: PDE3 Assay; format: biochemical; settings: human recombinant enzyme expressed in Sf9 cells; formation of 5'AMP from cAMP
Chain of human phosphodiesterase-3A (Q14432 whole entry): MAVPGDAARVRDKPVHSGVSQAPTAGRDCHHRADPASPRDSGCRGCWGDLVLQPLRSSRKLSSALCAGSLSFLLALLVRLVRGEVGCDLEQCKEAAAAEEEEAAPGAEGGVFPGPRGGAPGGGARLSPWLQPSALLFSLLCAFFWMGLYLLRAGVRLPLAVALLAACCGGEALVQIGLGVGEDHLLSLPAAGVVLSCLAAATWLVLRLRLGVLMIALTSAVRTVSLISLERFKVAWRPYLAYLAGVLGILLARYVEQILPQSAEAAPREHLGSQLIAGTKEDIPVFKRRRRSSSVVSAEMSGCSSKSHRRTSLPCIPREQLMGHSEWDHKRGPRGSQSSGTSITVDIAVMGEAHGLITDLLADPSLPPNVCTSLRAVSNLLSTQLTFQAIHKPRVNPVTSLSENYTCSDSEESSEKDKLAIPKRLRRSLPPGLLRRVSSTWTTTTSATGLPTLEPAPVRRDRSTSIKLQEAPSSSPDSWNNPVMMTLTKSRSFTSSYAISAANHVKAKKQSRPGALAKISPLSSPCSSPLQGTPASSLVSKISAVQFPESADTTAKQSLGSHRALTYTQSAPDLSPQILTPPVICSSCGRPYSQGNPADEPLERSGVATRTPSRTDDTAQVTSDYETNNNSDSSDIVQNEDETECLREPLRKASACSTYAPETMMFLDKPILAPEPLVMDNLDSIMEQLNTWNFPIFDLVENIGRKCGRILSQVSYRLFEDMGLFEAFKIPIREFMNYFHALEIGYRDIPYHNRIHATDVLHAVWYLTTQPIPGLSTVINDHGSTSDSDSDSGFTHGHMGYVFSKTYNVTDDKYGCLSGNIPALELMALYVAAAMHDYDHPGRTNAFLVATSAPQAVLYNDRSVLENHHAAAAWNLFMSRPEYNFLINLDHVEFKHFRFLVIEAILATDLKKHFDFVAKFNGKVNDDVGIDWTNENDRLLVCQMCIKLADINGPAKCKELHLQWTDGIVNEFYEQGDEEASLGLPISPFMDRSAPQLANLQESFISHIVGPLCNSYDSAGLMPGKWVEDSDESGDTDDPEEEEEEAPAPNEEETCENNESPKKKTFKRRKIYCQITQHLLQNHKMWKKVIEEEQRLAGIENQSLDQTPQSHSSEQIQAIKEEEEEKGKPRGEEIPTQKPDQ
Experimental: Evaluation of the effects of compounds on the activity of the human phosphodiesterase-3A is quantified by measuring the formation of 5′AMP from cAMP using a human recombinant enzyme expressed in a clonal isolate of Spodoptera frugiperda cells (Sf9) cells.
The test compound, reference compound or water (control) are added to a buffer containing 40 mM tris(hydroxymethyl)aminomethane (Tris)/HCl (pH 7.4) and 8 mM MgCl2, 450 nMcAMP and 0.25 μCi [^3H]cAMP.
Thereafter, the reaction is initiated by addition of the enzyme (about 1 U) and the mixture is incubated for 20 min at 22° C.
For basal control measurements, the enzyme is omitted from the reaction mixture. Following incubation SPA beads are added. After 30 min at 22° C. under shaking, the amount of [^3H]^+ 5′AMP is quantified with a scintillation counter (Topcount, Packard).
The results are expressed as a percent inhibition of the control enzyme activity. The standard inhibitory reference compound is milrinone (CAS number 78415-72-2), which is tested in each experiment at several concentrations to obtain an inhibition curve from which its IC50 value is calculated.

Chain of human GLP-1R receptor (P43220 24-463 L260F): as the sequence (P43220 24-463) above, with L237F counted along it

| EC50 (human GLP-1R receptor) [nM] | EC50 [1] [nM] | IC50 [2] [nM] | SMILES |
| --- | --- | --- | --- |
| 19 | 9.6 | > 100000 | COc1cc(C(=O)O)cc2c1nc(CN1C[C@@H]3[C@H](C1)[C@H]3c1nc(OCc3ccc(Cl)cc3F)ccc1C)n2C[C@@H]1CCO1 [Example 19, 2-(((1R,5S,6S)-6-(6-((4-Chloro-2-fluorobenzyl)oxy)-3-methylpyridin-2-yl)-3-azabicyclo[3.1.0]hexan-3-yl)methyl)-4-methoxy-1-(((S)-oxetan-2-yl)methyl)-1H-benzo[d]imidazole-6-carboxylic acid] |
| 100 | 23 | > 100000 | O=C(O)c1ccc2nc(CN3C[C@@H]4[C@H](C3)[C@H]4c3cccc(OCc4ccc(Cl)cc4F)n3)n(C[C@@H]3CCO3)c2c1 [Example 13, 2-(((1R,5S,6S)-6-(6-((4-Chloro-2-fluorobenzyl)oxy)pyridin-2-yl)-3-azabicyclo[3.1.0]hexan-3-yl)methyl)-1-(((S)-oxetan-2-yl)methyl)-1H-benzo[d]imidazole-6-carboxylic acid] |
